Legend:
human orexin-2 receptor = human orexin-2 receptor (Homo sapiens (Human), UniProt O43614); assay: hOX2R FLIPR Ca2+ flux assay; format: cell-based; settings: CHO cells expressing the receptor; agonist 70 pM Ala-6,12 human orexin-A
In short: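 FLIPR Ca2+ flux, CHO cells, rat OX1R / human OX2R; 5 min cpd preinc, then 70 pM Ala-6,12 hOrexin-A final; buffer pH 7.4 w/ 2.5 mM probenecid; peak vs agonist-alone.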

hOX1R = hOX1R (Homo sapiens, UniProt O43613); assay: hOX1R FLIPR Ca2+ flux assay; format: cell-based; settings: CHO cells expressing the receptor; agonist 70 pM Ala-6,12 human orexin-A

human orexin-2 receptor, sequence (O43614 whole entry): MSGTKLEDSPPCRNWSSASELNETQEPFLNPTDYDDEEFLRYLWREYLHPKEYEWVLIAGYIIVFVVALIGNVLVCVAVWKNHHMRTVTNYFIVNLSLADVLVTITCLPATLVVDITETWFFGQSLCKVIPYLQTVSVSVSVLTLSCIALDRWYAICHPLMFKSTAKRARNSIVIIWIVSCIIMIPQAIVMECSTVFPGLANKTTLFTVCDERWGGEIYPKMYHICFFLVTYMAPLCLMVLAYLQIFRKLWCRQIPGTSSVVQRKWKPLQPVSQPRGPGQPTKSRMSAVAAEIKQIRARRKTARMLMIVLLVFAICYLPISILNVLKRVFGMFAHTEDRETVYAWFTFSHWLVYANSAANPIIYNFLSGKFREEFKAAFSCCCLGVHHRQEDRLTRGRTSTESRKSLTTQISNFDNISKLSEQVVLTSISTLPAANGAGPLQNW

SMILES	IC50 (human orexin-2 receptor)	IC50 (hOX1R)
N#Cc1ccnc(N2CC[C@@H]3C[C@@H](CO)N(C(=O)c4ccccc4-n4nccn4)C[C@@H]32)c1 [Example G1, 2-((3aR,5S,7aR)-6-(2-(2H-1,2,3-triazol-2-yl)benzoyl)-5-(hydroxymethyl)octahydro-1H-pyrrolo[2,3-c]pyridin-1-yl)isonicotinonitrile]	8.2 nM	2750 nM
CCOC(=O)[C@@H]1C[C@H]2CCN(c3cc(C#N)ccn3)[C@H]2CN1C(=O)c1ccccc1-n1nccn1 [Example G2, (3aR,5S,7aR)-ethyl 6-(2-(2H-1,2,3-triazol-2-yl)benzoyl)-1-(4-cyanopyridin-2-yl)octahydro-1H-pyrrolo[2,3-c]pyridine-5-carboxylate]	198 nM	≥ 10000 nM
N#Cc1ccnc(N2CC[C@@H]3C[C@@H](CO)N(C(=O)c4ccccc4-n4nccn4)C[C@@H]32)c1 [Example G4]	2080 nM	10000 nM
C[C@H]1C[C@H]2CCN(c3cc(C#N)ccn3)[C@H]2CN1C(=O)c1ccccc1-n1nccn1 [Example H1, 2-(6-(2-(2H-1,2,3-triazol-2-yl)benzoyl)-5-methloctahydro-1H-pyrrolo[2,3-c]pyridin-1-yl)isonicotinonitrile]	18.4 nM	2370 nM

Source: US9938276B2, “6,5-bicyclic octahydropyrrolopyridine orexin receptor antagonists” (Merck Sharp & Dohme Corp., priority 2014, dated 2018)
